Reference: patent EP0407583A1, “DERIVATIVES OF DICHLOR[…] ACYLAMIDO[…] AND INSECTICIDAL, FU[…] HEMATOCIDAL PREPARATIONS BASED ON THEM” (priority 1989, dated 1990)

Tests used:
domestic flies [1] = test: Insecticidal activity on domestic flies, laboratory test (gauze boxes); assay type: in vivo; details: 0.1% solution in 5% aqueous glucose solution; 50 flies per box; count in 72 hours
Protocol: (§1) Based on the compound there was prepared an insecticidal composition in the form of a 0.1% solution thereof in a 5% aqueous glucose solution. The activity of the insecticidal composition, according to the invention was tested on domestic flies. To this end, into the gauze-made boxes of 10x10 cm in size (6 boxes) 6-7-day flies of both sexes were placed at the rate of 50 individuals per each box. Into 5 boxes there were placed Petri dishes with a 5% aqueous glycose solutiono An insecticidal activity of the composition, according to the invention, was tested in com- parison with an insecticidal composition based on 0,0-dimethyl(1-hydroxy-2,2,2-trichloroethyl)phosphonate. The tests were also conducted in living and production premises. For this, Petri dishes containing a 0.1% aqueous solution of the insecticide of the invention, to which a 5% glucose solution was added, were put at a rate of 2-3 dishes per 20 m^2. The activity of the composition, according to the invention, was evaluated by a direct count of dead insects in 72 hours or by using the adhesive tapes and counting the number of flies on the tape prior and after the test.

domestic flies [2] = test: Insecticidal activity on flies, large-scale test in living and production premises; assay type: in vivo; details: 0.1% aqueous solution with 5% glucose, 2-3 dishes per 20 m^2, living and production premises; 72 hours
Protocol: as §1

Solubility (qualitative) = details: water, alcohols, acetone
Alternaria sobani [3] = test: Inhibition of phytopathogenic fungi, field test on affected potato plants; assay type: in vivo; details: 5 m^2 plots of affected potato plants sprayed
Text: (§2) For field tests the plots of 5 m^2 in size with potato plants affected by Fusarium moniliforme, Venturia inaequalis, Rhyzoctonia violaceae, Botrytis cinereae, Verticillium albo-atrum, Diplodia zeae, Fusarium oxysporum, Rhoma betae, Rhyzoctonia aderholdii, Aspergillus niger, Alternaria sobani, Botrytis allii, Aspergillus fumigatis, Fusarium culmorum, Penicillium cyclopium were sprayed with the fungicide of the invention. To compare, the similar plots of the affected potato plants were aprayed with the known compositions indicated above.

Rhyzoctonia violaceae [4] = test: as above; assay type: in vivo; details: 5 m^2 plots of affected potato plants sprayed
Text: as §2

Botrytis cinereae [5] = test: as above; assay type: in vivo; details: 5 m^2 plots of affected potato plants sprayed
Text: as §2

Venturia inaequalis [6] = test: as above; assay type: in vivo; details: 5 m^2 plots of affected potato plants sprayed
Text: as §2

Rhyzoctonia aderholdii [7] = test: as above; assay type: in vivo; details: 5 m^2 plots of affected potato plants sprayed
Text: as §2

Fusarium moniliforme [8] = test: as above; assay type: in vivo; details: 5 m^2 plots of affected potato plants sprayed
Text: as §2

Penicillium cyclopium [9] = test: as above; assay type: in vivo; details: 5 m^2 plots of affected potato plants sprayed
Text: as §2

Botrytis allii [10] = test: as above; assay type: in vivo; details: 5 m^2 plots of affected potato plants sprayed
Text: as §2

Aspergillus niger [11] = test: as above; assay type: in vivo; details: 5 m^2 plots of affected potato plants sprayed
Text: as §2

Verticillium albo-atrum [12] = test: as above; assay type: in vivo; details: 5 m^2 plots of affected potato plants sprayed
Text: as §2

Diplodia zeae [13] = test: as above; assay type: in vivo; details: 5 m^2 plots of affected potato plants sprayed
Text: as §2

Fusarium culmorum [14] = test: as above; assay type: in vivo; details: 5 m^2 plots of affected potato plants sprayed
Text: as §2

Aspergillus fumigatis [15] = test: as above; assay type: in vivo; details: 5 m^2 plots of affected potato plants sprayed
Text: as §2

Rhoma betae [16] = test: as above; assay type: in vivo; details: 5 m^2 plots of affected potato plants sprayed
Text: as §2

Fusarium oxysporum [17] = test: as above; assay type: in vivo; details: 5 m^2 plots of affected potato plants sprayed
Text: as §2

Alternaria sobani [18] = test: Inhibition of phytopathogenic fungi growth, laboratory test on potato-dextrose agar; assay type: cell-based; details: active principle 0.01 % by mass in potato-dextrose agar
Protocol: (§3) A fungicidal composition based on this compound was prepared in the form of a 0.01% solution thereof in distilled water. A fungicidal action of the composition, according to the invention, was tested for inhibition of vegetative fungi growth such as Fusarium moniliforme, Ventura inaequalis, Rhyzoctonia ciolaceae, Botrytis cinereae, Verticillium albo-atrum, Diplodia zeae, Fusarium oxysporum, Rhoma betae, Rhyzoctonia aderholdii, Aspergillus niger, Alternaria sobani, Botrytis allii, Aspergillus fumigatis, Fusarium culmorum, Penicillium cyclopium affecting potato, sugar beet, cotton seeds either in laboratory or field conditions. For testing it to the Petri dishes containing potato-dextrose agar the composition of the invention was.added at the concentration of an active principle of 0.01 % by mass. The Petri dishes containing the same agar culture were inoculated with a mycelium of phytopathogenic fungi. For control dishes the phytopathogenic fungi were inoculated on agar without using the composition of the invention. A fungicidal effect of the composition, according to the invention was tested in comparison with the known fungicidal compositions based on 2,3-dichloro-1,4-naphthoquinone, zinc N,N'-ethylene-bis-dithiocarbamate and tetramethylthiuram disulphide.

Rhyzoctonia violaceae [19] = test: as above; assay type: cell-based; details: active principle 0.01 % by mass in potato-dextrose agar
Protocol: as §3

Botrytis cinereae [20] = test: as above; assay type: cell-based; details: active principle 0.01 % by mass in potato-dextrose agar
Protocol: as §3

Venturia inaequalis [21] = test: as above; assay type: cell-based; details: active principle 0.01 % by mass in potato-dextrose agar
Protocol: as §3

Rhyzoctonia aderholdii [22] = test: as above; assay type: cell-based; details: active principle 0.01 % by mass in potato-dextrose agar
Protocol: as §3

Fusarium moniliforme [23] = test: as above; assay type: cell-based; details: active principle 0.01 % by mass in potato-dextrose agar
Protocol: as §3

Penicillium cyclopium [24] = test: as above; assay type: cell-based; details: active principle 0.01 % by mass in potato-dextrose agar
Protocol: as §3

Botrytis allii [25] = test: as above; assay type: cell-based; details: active principle 0.01 % by mass in potato-dextrose agar
Protocol: as §3

Aspergillus niger [26] = test: as above; assay type: cell-based; details: active principle 0.01 % by mass in potato-dextrose agar
Protocol: as §3

Verticillium albo-atrum [27] = test: as above; assay type: cell-based; details: active principle 0.01 % by mass in potato-dextrose agar
Protocol: as §3

Diplodia zeae [28] = test: as above; assay type: cell-based; details: active principle 0.01 % by mass in potato-dextrose agar
Protocol: as §3

Fusarium culmorum [29] = test: as above; assay type: cell-based; details: active principle 0.01 % by mass in potato-dextrose agar
Protocol: as §3

Aspergillus fumigatis [30] = test: as above; assay type: cell-based; details: active principle 0.01 % by mass in potato-dextrose agar
Protocol: as §3

Rhoma betae [31] = test: as above; assay type: cell-based; details: active principle 0.01 % by mass in potato-dextrose agar
Protocol: as §3

Fusarium oxysporum [32] = test: as above; assay type: cell-based; details: active principle 0.01 % by mass in potato-dextrose agar
Protocol: as §3

For `O=C(NP(=O)(Nc1ccccc1Cl)Nc1ccccc1Cl)c1ccc(Br)cc1` [Example 5, para-bromo- bensoylamidophosphoric acid di-ortho-chloranilide], the “Death of flies, % tests laboratory” value (domestic flies [1]) was 100% and the “Death of flies, % tests large-scale” value (domestic flies [2]) was 100%.
With `O=C(NP(=O)(Nc1ccc(Cl)cc1Cl)Nc1ccc(Cl)cc1Cl)c1ccc(Br)cc1` [Example 6, para-bromobenzoilamidophosphoric acid di-2,4-dichloranilide] the “Death of flies, % tests laboratory” value (domestic flies [1]) was 100%, the solubility (Solubility (qualitative)) was “soluble in water, alcohols, acetone” and the “Death of flies, % tests large-scale” value (domestic flies [2]) was 100%.
In the case of `COP(=O)(NC(=O)c1ccc(Cl)c([N+](=O)[O-])c1)OC` [Example 7, dimethyl ether of 3-mitro-4-chlorobenzoylamidiphos-phoric acid], the “Death of flies, % tests laboratory” value (domestic flies [1]) is reported as 76%, the solubility (Solubility (qualitative)) is reported as “soluble in water, alcohols, acetone” and the “Death of flies, % tests large-scale” value (domestic flies [2]) is reported as 75%.
With `CCOP(=O)(NC(=O)c1ccc(Cl)c([N+](=O)[O-])c1)OCC` [Example 8, diethyl ether of 3-nitro-4-chlorobenzoylamidophosphoric acid] the “Death of flies, % tests laboratory” value (domestic flies [1]) was 98%, the solubility (Solubility (qualitative)) was “soluble in water, alcohols, acetone” and the “Death of flies, % tests large-scale” value (domestic flies [2]) was 97%.
With `O=C(NP(=O)(Nc1ccc(Cl)cc1Cl)Nc1ccc(Cl)cc1Cl)c1ccc(Br)cc1` [Example 13, para-bromobenzoylamidophosphoric acid di-2,4-dichloroanil-ide] the “Inhibition of growth of phytopathogenic fungi colonies, % Alternaria sobani test field” value (Alternaria sobani [3]) was 100%, the “Inhibition of growth of phytopathogenic fungi colonies, % Rhyzoctonia violaceae test field” value (Rhyzoctonia violaceae [4]) was 47% and the “Inhibition of growth of phytopathogenic fungi colonies, % Botrytis cinereae test field” value (Botrytis cinereae [5]) was 0%. For the same compound, the “Inhibition of growth of phytopathogenic fungi colonies, % Venturia inaequalis test field” value (Venturia inaequalis [6]) was 44%, the “Inhibition of growth of phytopathogenic fungi colonies, % Rhyzoctonia aderholdii test field” value (Rhyzoctonia aderholdii [7]) was 100% and the “Inhibition of growth of phytopathogenic fungi colonies, % Fusatium monili-forme test field” value (Fusarium moniliforme [8]) was 74%. The “Inhibition of growth of phytopathogenic fungi colonies, % Penicillium cyclopium Tests field” value (Penicillium cyclopium [9]) was 93%, the “Inhibition of growth of phytopathogenic fungi colonies, % Botrytis allii test field” value (Botrytis allii [10]) was 100% and the “Inhibition of growth of phytopathogenic fungi colonies, % Aspergillus niger test field” value (Aspergillus niger [11]) was 34%. For the same compound, the “Inhibition of growth of phytopathogenic fungi colonies, % Verticillium albo--atrum test field” value (Verticillium albo-atrum [12]) was 46%, the “Inhibition of growth of phytopathogenic fungi colonies, % Diplodia zeae test field” value (Diplodia zeae [13]) was 100% and the “Inhibition of growth of phytopathogenic fungi colonies, % Fusarium culmorum Tests field” value (Fusarium culmorum [14]) was 93%. The “Inhibition of growth of phytopathogenic fungi colonies, % Aspergillus fumigatis Tests field” value (Aspergillus fumigatis [15]) was 50%, the “Inhibition of growth of phytopathogenic fungi colonies, % Rhoma betae test field” value (Rhoma betae [16]) was 62% and the “Inhibition of growth of phytopathogenic fungi colonies, % Fusarium oxysporum test field” value (Fusarium oxysporum [17]) was 43%. For the same compound, the “Inhibition of growth of phytopathogenic fungi colonies, % Alternaria sobani test laboratory” value (Alternaria sobani [18]) was 100%, the “Inhibition of growth of phytopathogenic fungi colonies, % Rhyzoctonia violaceae test laboratory” value (Rhyzoctonia violaceae [19]) was 46% and the “Inhibition of growth of phytopathogenic fungi colonies, % Botrytis cinereae test laboratory” value (Botrytis cinereae [20]) was 0%. The “Inhibition of growth of phytopathogenic fungi colonies, % Venturia inaequalis test laboratory” value (Venturia inaequalis [21]) was 45%, the “Inhibition of growth of phytopathogenic fungi colonies, % Rhyzoctonia aderholdii test laboratory” value (Rhyzoctonia aderholdii [22]) was 100% and the “Inhibition of growth of phytopathogenic fungi colonies, % Fusatium monili-forme test laboratory” value (Fusarium moniliforme [23]) was 75%. For the same compound, the “Inhibition of growth of phytopathogenic fungi colonies, % Penicillium cyclopium Tests laboratory” value (Penicillium cyclopium [24]) was 100%, the “Inhibition of growth of phytopathogenic fungi colonies, % Botrytis allii test laboratory” value (Botrytis allii [25]) was 100% and the “Inhibition of growth of phytopathogenic fungi colonies, % Aspergillus niger test laboratory” value (Aspergillus niger [26]) was 35%. The “Inhibition of growth of phytopathogenic fungi colonies, % Verticillium albo--atrum test laboratory” value (Verticillium albo-atrum [27]) was 47%, the “Inhibition of growth of phytopathogenic fungi colonies, % Diplodia zeae test laboratory” value (Diplodia zeae [28]) was 100% and the “Inhibition of growth of phytopathogenic fungi colonies, % Fusarium culmorum Tests laboratory” value (Fusarium culmorum [29]) was 100%. For the same compound, the “Inhibition of growth of phytopathogenic fungi colonies, % Aspergillus fumigatis Tests laboratory” value (Aspergillus fumigatis [30]) was 53%, the “Inhibition of growth of phytopathogenic fungi colonies, % Rhoma betae test laboratory” value (Rhoma betae [31]) was 64% and the “Inhibition of growth of phytopathogenic fungi colonies, % Fusarium oxysporum test laboratory” value (Fusarium oxysporum [32]) was 44%.
In the case of `CN(C)C(=S)SSC(=S)N(C)C` [tetramethylthi-uram disulphide, tetramethylthiuram disulphide, reference compound], the “Inhibition of growth of phytopathogenic fungi colonies, % Rhyzoctonia aderholdii test field” value (Rhyzoctonia aderholdii [7]) is reported as 99%, the “Inhibition of growth of phytopathogenic fungi colonies, % Penicillium cyclopium Tests field” value (Penicillium cyclopium [9]) is reported as 64% and the “Inhibition of growth of phytopathogenic fungi colonies, % Aspergillus niger test field” value (Aspergillus niger [11]) is reported as 98%. For the same compound, the “Inhibition of growth of phytopathogenic fungi colonies, % Fusarium culmorum Tests field” value (Fusarium culmorum [14]) was 98%, the “Inhibition of growth of phytopathogenic fungi colonies, % Aspergillus fumigatis Tests field” value (Aspergillus fumigatis [15]) was 80% and the “Inhibition of growth of phytopathogenic fungi colonies, % Rhoma betae test field” value (Rhoma betae [16]) was 59%. For the same compound, the “Inhibition of growth of phytopathogenic fungi colonies, % Rhyzoctonia aderholdii test laboratory” value (Rhyzoctonia aderholdii [22]) was 100%, the “Inhibition of growth of phytopathogenic fungi colonies, % Penicillium cyclopium Tests laboratory” value (Penicillium cyclopium [24]) was 65% and the “Inhibition of growth of phytopathogenic fungi colonies, % Aspergillus niger test laboratory” value (Aspergillus niger [26]) was 100%. The “Inhibition of growth of phytopathogenic fungi colonies, % Fusarium culmorum Tests laboratory” value (Fusarium culmorum [29]) was 100%, the “Inhibition of growth of phytopathogenic fungi colonies, % Aspergillus fumigatis Tests laboratory” value (Aspergillus fumigatis [30]) was 81% and the “Inhibition of growth of phytopathogenic fungi colonies, % Rhoma betae test laboratory” value (Rhoma betae [31]) was 60%.
